Test results as given in PMC10514301 (Signal Transduction and Targeted Therapy, 2023).

How the values were obtained:
[1] = test system: SARS-CoV-2 Omicron BA.1 variant; assay: Antiviral activity against SARS-CoV-2 Omicron BA.1 in Vero E6 cells (qRT-PCR); format: cell-based
[2] = test system: SARS-CoV-2 Delta variant; assay: Antiviral activity against SARS-CoV-2 Delta in Vero E6 cells (viral RNA copies, qRT-PCR); format: cell-based
[3] = test system: SARS-CoV-2 Omicron BA.1 variant; assay: Antiviral activity against SARS-CoV-2 Omicron BA.1 in HEK293T-hACE2-TMPRSS2 cells (qRT-PCR); format: cell-based; settings: Severe acute respiratory syndrome coronavirus 2, 24 h; read-out: EC50 mean ± sd, HEK293T-ACE2-T2, Omicron BA.1
[4] = test system: SARS-CoV-2 Omicron BA.5 variant; assay: Antiviral activity against SARS-CoV-2 Omicron BA.5 in HEK293T-hACE2-TMPRSS2 cells (qRT-PCR); format: cell-based; settings: Severe acute respiratory syndrome coronavirus 2, 24 h; read-out: EC50 mean ± sd, HEK293T-ACE2-T2, Omicron BA.5
[5] = test system: SARS-CoV-2 Omicron BA.5 variant; assay: Antiviral activity against SARS-CoV-2 Omicron BA.5 in Vero E6 cells (qRT-PCR); format: cell-based
[6] = test system: SARS-CoV-2 Delta variant; assay: Antiviral activity against SARS-CoV-2 Delta in HEK293T-hACE2-TMPRSS2 cells (qRT-PCR); format: cell-based; settings: Severe acute respiratory syndrome coronavirus 2, 24 h; read-out: EC50 mean ± sd, HEK293T-ACE2-T2, Delta
[7] = test system: SARS-CoV-2 Delta variant; format: in vivo, K18-hACE2 mice
[8] = test system: SARS-CoV-2 variants (Delta, Omicron BA.1, and Omicron BA.5), HCoV-OC43, and HCoV-229E; assay: organism not typed; format: cell-based; settings: read-out: half-maximal effective concentrations (EC50), range over HCoVs and cell lines
[9] = Severe acute respiratory syndrome coronavirus 2, Vero C1008, 24 h, read-out: EC50 mean ± sd, Vero E6, Omicron BA.1
[10] = Severe acute respiratory syndrome coronavirus 2, Vero C1008, 24 h, read-out: EC50 mean ± sd, Vero E6, Delta
[11] = Severe acute respiratory syndrome coronavirus 2, Vero C1008, 24 h, read-out: EC50 mean ± sd, Vero E6, Omicron BA.5

N#C[C@@]1(c2ccc3c(N)ncnn23)O[C@H](CO)[C@@H](O)[C@H]1O [GS-441524]
EC50 [1, 9]: 280 ± 11 nM | EC50 [2, 10]: 610 ± 79 nM | EC50 [3]: 380 ± 40 nM | EC50 [4]: 750 ± 64 nM | EC50 [5, 11]: 100 ± 11 nM | EC50 [6]: 250 ± 140 nM

CC(C)(C)[C@H](NC(=O)C(F)(F)F)C(=O)N1C[C@H]2[C@@H]([C@H]1C(=O)N[C@H](C#N)C[C@@H]1CCNC1=O)C2(C)C [Nirmatrelvir, nirmatrelvir]
expression of IL-6 and CCL2 in the lungs ([7]; initial days (day 2)): reduction | reduction of lung viral loads compared to the vehicle group ([7]; oral BID, […], VV116 50 and 100 mpk, nirmatrelvir 100 mpk with ritonavir 50 mpk, Combo = VV116 50 + nirmatrelvir 100 + ritonavir 50 mpk): 1–2 log

CCC(CC)COC(=O)[C@H](C)N[P@](=O)(OC[C@H]1O[C@@](C#N)(c2ccc3c(N)ncnn23)[C@H](O)[C@@H]1O)Oc1ccccc1 [RDV, remdesivir]
EC50 ([1]; Severe acute respiratory syndrome coronavirus 2, Vero C1008, Vero E6 cells, read-out: EC50 against the SARS-CoV-2 Omicron BA.1 variant in Vero E6 cells): 540 nM | EC50 ([2]; Severe acute respiratory syndrome coronavirus 2, Vero C1008, Vero E6 cells, read-out: EC50 against the SARS-CoV-2 Delta variant in Vero E6 cells): 2200 nM | EC50 ([5]; Severe acute respiratory syndrome coronavirus 2, Vero C1008, Vero E6 cells, read-out: EC50 against Omicron BA.5): 130 nM

[2H]c1cc([C@]2(C#N)O[C@H](CO)[C@@H](O)[C@H]2O)n2ncnc(N)c12 [X1]
EC50 [8]: 60 to 1100 nM | EC50 [1, 9]: 300 ± 27 nM | EC50 [2, 10]: 830 ± 71 nM | EC50 [3]: 720 ± 24 nM | EC50 [4]: 450 ± 100 nM | EC50 [5, 11]: 460 ± 4 nM | EC50 [6]: 150 ± 37 nM
